Like-named read-outs stand apart in the source and are kept apart here.
Key:
[1] = Drug substance description (solubility, hygroscopicity); type: physicochemical
Source text: Bepotastine besilate is a white to off-white, odorless, crystalline powder. The bepotastine drug substance physiological mode of action is inhibition of histamine H1 receptors to relieve typical symptoms associated with allergic rhinitis. […] Fluticasone propionate is a white to off-white, crystalline synthetic trifluorinated corticosteroid used to treat inflammatory symptoms related to asthma and allergic rhinitis.

[2] = Chemical stability studies at 25° C. and 40° C. in amber glass bottles; type: physicochemical
Experimental: Chemical stability studies were performed to determine if the formulation would likely achieve a commercially practical shelf-life. Studies were performed at 25° C. and 40° C. in moisture impermeable amber glass bottles.

[3] = cited from earlier work
microorganisms = test: USP 51 Preservative Efficacy Test (overall outcome); type: cell-based; conditions: BAK at a concentration of 0.200 mg/mL
Source text: The term “preservative efficacy” or “preservative effectiveness” or “antimicrobial efficacy”, as used herein, means that the composition satisfies USP standards as defined in protocol <51> p. 1681, United States Pharmacopeia, 1995: Antimicrobial effectiveness testing; The United States Pharmacopeia, 32nd rev ed., and the National Formulary, 27th ed. Rockville, Md.: USPC; 2009. For example, the preservative is effective in the product examined if (a) the concentrations of viable bacteria are reduced to not more than 0.1% of the initial concentrations by the fourteenth day; (b) the concentrations of viable yeasts and molds remain at or below the initial concentrations during the first 14 days; and (c) the concentration of each test microorganism remains at or below these designated levels during the remainder of the 28-day test period. Similar criteria are defined for BP standards (Efficacy of Antimicrobial Preservation, Appendix XVI C, 1995), and PhEur standards (Efficacy of Antimicrobial Preservation, Chapter VIII. 14, 1992).
The compositions provided herein may include an effective amount of an antimicrobial preservative. Preservatives can be used to inhibit microbial growth (e.g., bacterial or yeast) in the compositions. An “effective amount” of a preservative is that amount necessary to prevent the growth of microorganisms in the composition. […]

Question: What does the source list for O=C(O)CCCN1CCC(O[C@@H](c2ccc(Cl)cc2)c2ccccn2)CC1.O=S(=O)(O)c1ccccc1 [Bepotastine besilate, (+)-(S)-4-[4-[(4-chlorophenyl)(2-pyridyl)methoxy]piperidino]butyric acid]?
Answer: hygroscopicity ([1]; drug substance powder): non-hygroscopic; dissolution in the nasal spray formulation vehicle ([1]; nasal spray formulation vehicle): dissolves readily

Question: For O=C(O)CCCN1CCC(O[C@@H](c2ccc(Cl)cc2)c2ccccn2)CC1 [Bepotastine, (+)-(S)-4-[4-[(4-chlorophenyl)(2-pyridyl)methoxy]piperidino]butyric acid], which “impurities found during stability evaluation” value [2] is on record?
Answer: Its value is “only impurity found was the ethyl ester precursor of bepotastine”.

Question: What does the source list for CCC(=O)O[C@]1(C(=O)SCF)[C@H](C)C[C@H]2[C@@H]3C[C@H](F)C4=CC(=O)C=C[C@]4(C)[C@@]3(F)[C@@H](O)C[C@@]21C [fluticasone propionate, Fluticasone propionate]?
Answer: solubility in water [3]: practically insoluble; solubility in water ([3]; listed as fluticasone): insoluble

Question: Which effectiveness as preservative (microorganisms) does the source give for benzalkonium chloride [BAK] here?
Answer: The effectiveness as preservative was “effective preservative”.

— patent US10736841B2, “Bepotastine compositions” (BAUSCH & LOMB INCORPORATED, priority 2011, dated 2020)
